Experimental data from publication PMC3600304, “Inhibitors of Fatty Acid Synthesis Induce PPARα-Regulated Fatty Acid β-Oxidative Genes: Synergistic Roles of L-FABP and Glucose” (PPAR Research, 2013).

Assays:
L-FABP = molecular target: T1, L-FABP (Rattus norvegicus, UniProt P02692); assay: Displacement of L-FABP-bound NBD-stearic acid; format: binding
T1 construct: made in house
T1 sequence (P02692 1-127): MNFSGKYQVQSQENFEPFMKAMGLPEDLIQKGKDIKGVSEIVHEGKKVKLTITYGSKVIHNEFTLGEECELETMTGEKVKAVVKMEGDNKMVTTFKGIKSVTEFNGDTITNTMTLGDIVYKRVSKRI
Method: Advantage was taken of the fact that NBD-stearic acid bound to L-FABP (two ligand binding sites) as well as SCP-2 (single-ligand binding site) to design a NBD-stearic acid displacement assay that allowed determination of which fatty acid synthesis inhibitors or their CoA thioesters bound to these LCFA/LCFA-CoA binding proteins. Displacement of NBD-stearate from L-FABP and SCP-2 was determined by incubating L-FABP or SCP-2 (25 nM in 10 mM phosphate buffer) with NBD stearate (40 nM) for 12 min to obtain maximal fluorescence, followed by titration with increasing amount of ligand. From the displacement curve, the K i value was calculated as described. All experiments were carried out with a thermostated cuvette to maintain temperature at 24°C using a circulating water bath. ANS displacement assay was performed as described.

recombinant rat L-FABP = molecular target: T2, recombinant rat L-FABP (Rattus norvegicus, UniProt P02692); assay: L-FABP secondary structure by circular dichroism (CD); details: L-FABP 1 μM, ligand 10 μM
T2 construct: made in house
T2 sequence (P02692 1-127): T1 sequence (P02692 1-127)
Method: Circular dichroism (CD) spectra were obtained utilizing a JASCO J-815 CD spectrometer (JASCO Analytical Instruments, Easton, MD, USA). Each sample for CD analysis contained recombinant rat L-FABP (1 μM) in 10 mM potassium phosphate (pH 7.4) with or without ligand (10 μM). Samples were scanned from 190 to 250 nm using the following conditions: step resolution, 1 nm; bandwidth, 2 nm; sensitivity, 10 mdeg; scan rate, 50 nm/min; and time constant, 1 s. For each measurement, 10 scans were averaged, background-subtracted, smoothed using the Means-Movement smoothing method (convolution width, 5) and converted to mean residue molar ellipticity utilizing the Spectra Manager Version 2 software as supplied by the instrument manufacturer (Spectra Analysis Version 2.03.04, Build 5). The percentage composition of α-helices (regular, distorted, total), β-sheets (regular, distorted, total), turns, and unordered structures was determined utilizing the CDPro program as supplied by the instrument manufacturer using the SDP48 reference set (soluble + denatured protein). This program allows the percentage calculation of various secondary structures by three different methods: CDSSTR, CONTIN, and SELCON3. Statistical analysis was performed by one-way analysis of variance (ANOVA) combined with the Newman-Keuls multiple-comparisons posttest (GraphPad Prism Version 3.03, San Diego, CA, USA).

[1] = test system: PPARα transcription of CPT1A, CPT2, ACOX1; assay: rtPCR of CPT1A, CPT2, ACOX1 mRNA in wild-type mouse primary hepatocytes; format: cell-based; details: inhibitor 10 μg/mL, 5 hr
Method: (§1) Mouse hepatocytes were isolated from livers of male wild-type and L-FABP null mice as described. To study the effect of TOFA and C75 at different glucose levels, mouse hepatocytes were cultured overnight with DMEM/F-12 supplemented with 5% FBS. Cells were incubated with glucose-free DMEM supplemented with fatty acid-free BSA (40 μM), 100 nM insulin, 10 nM dexamethasone, and without (no inhibitor) or with the de novo fatty acid synthesis inhibitors C75 or TOFA (10 μg/mL) for 30 min (1 mL/well). Cells were incubated further for 5 hr with 6 or 20 mM glucose without or with the inhibitors.
Transcription of key enzymes in mitochondrial (CPT1A and CPT2) and peroxisomal (ACOX1) β-oxidation of long chain fatty acid (LCFA) was determined by rtPCR similarly as described. Briefly, the RNeasy mini kit from Qiagen Sciences (MD, USA) was used as per the manufacturer's instructions to isolate total RNA, which was then quantified spectrophotometrically. Quantitative real-time PCR was performed with an ABI PRISM 7000 Sequence Detection System (SDS) from Applied Biosystems (Foster City, CA, USA) to determine relative mRNA expression for CPT1A, CPT2, and ACOX1. The thermal protocol was as follows: 48°C for 30 min, 95°C for 10 min before the first cycle, 95°C for 15 sec, and 60°C for 60 sec, repeated 40 times. TaqMan One-Step Master Mix and Gene Expression Assays for mouse CPT1A (Mm 00550438_m1), CPT2 (Mm 00487202_m1), and ACOX1 (Mm 00443579_m1) were purchased from Applied Biosystems (Life Technologies, Carlsbad, CA, USA). Triplicates of each sample were analyzed with ABI PRISM 7000 SDS software (Applied Biosystems) to determine ΔCt relative to a positive control (18S housekeeping gene). The fold change in the abundance of CPT1A, CPT2, and ACOX1 mRNAs was determined in primary mouse hepatocytes treated with albumin (40 μM) in the absence and presence of lipid synthesis inhibitors (C75, TOFA, 10 μg/mL) in glucose-free DMEM medium supplemented with 100 nM insulin, 10 nM dexamethasone, and either 6 or 20 mM glucose. The comparative 2^−ΔΔCt calculation method was used as described in User Bulletin 2, ABI Prism 7000 SDS (Applied Biosystems), and earlier. Finally, protein levels of liver fatty acid binding protein (L-FABP), sterol carrier protein-2 (SCP-2), acyl CoA binding protein (ACBP), peroxisome proliferator activated receptor (PPARα), liver X receptor-α (LXRα), carbohydrate response element binding protein (ChREBP), and sterol response element binding protein (SREBP) were determined by western blotting as described.

[2] = test system: mouse primary hepatocytes; assay: Hepatocyte cytosolic glucose level; format: cell-based; details: for Cytosolic glucose / Fold increase of cytosolic glucose versus no inhibitor: inhibitor 10 μg/mL; for Fold increase of cytosolic glucose by inhibitor: high extracellular glucose (20 mM); for Fold increase of cytosolic glucose with increasing glucose from 6 to 20 mM: in the presence of inhibitor 10 μg/mL
Method: as §1
Hepatocytes were plated 2 × 10^5 per well in 12-well tissue culture plates (Becton Dickinson and Company, Franklin Lakes, NJ, USA). After incubation with culture medium containing TOFA or C75 with increasing glucose level as described previously, hepatocytes were washed quickly with a cold solution of MgCl2 (100 mM) with 0.1 mM phloretin [46]. Cells were scraped from the dishes with PBS plus protease inhibitor, and cells were broken open with a probe sonicator (Sonic Dismembrator 550, Fisher Scientific, Waltham, MA, USA). Samples were sedimented at 10,000 g, 4°C for 20 min. The supernatant was used for glucose analysis with the Amplite Glucose Quantitation Kit (AAT Bioquest, Inc. Sunnyvale, CA, USA) as instructed by the manufacturer. The number of cultured primary hepatocytes in each sample was calculated based on amount of protein (Bradford Assay, Sigma, St. Louis, MO, USA) compared with reference samples with a known number of hepatocytes. Cytosolic glucose concentration was calculated using 7.4 × 10^−12 liter/cell as volume of the hepatocytes.

Row | Displacement of NBD-stearic acid bound to L-FABP (in words) (L-FABP) | Effect on L-FABP secondary structure (overall) (recombinant rat L-FABP) | Ki (L-FABP; L-FABP 25 nM, NBD stearate 40 nM, 24°C, read-out: K i, displacing L-FABP-bound NBD-stearic acid) [nM] | Fluorescence of L-FABP-bound NBD-stearic acid decreasing to (L-FABP; at 650 nM TOFA) [%] | Effect on proportion of all types of β-sheet of L-FABP (recombinant rat L-FABP) | Effect on proportion of α-helix of L-FABP (recombinant rat L-FABP) | Effect on turn structure of L-FABP (recombinant rat L-FABP) | Effect on unordered structure of L-FABP (recombinant rat L-FABP) | Structure (SMILES) | PPARα transcription of CPT1A, CPT2, ACOX1 (mRNA) ([1]; 6 mM glucose) | PPARα transcription of CPT1A, CPT2, ACOX1 (mRNA) ([1]; 20 mM glucose) | Cytosolic glucose ([2]; 6 mM glucose in medium) [mM] | Fold increase of cytosolic glucose versus no inhibitor ([2]; 6 mM glucose in medium) | Cytosolic glucose ([2]; 20 mM glucose in medium) [mM] | Fold increase of cytosolic glucose by inhibitor [2] [fold] | Fold increase of cytosolic glucose with increasing glucose from 6 to 20 mM [2] [fold]
1 | weaker | did not alter | – | – | – | – | – | – | C=C1C(=O)OC(CCCCCCCC)C1C(=O)O (centres unmarked) [C75, 4-methylene-2-octyl-5-oxotetrahydrofuran-3-carboxylic acid] | neither TOFA nor C75 significantly altered | induced | 4 | ~ 2 fold | 13 | ~2 | ~4
2 | – | significantly altered | 66 ± 3 | 40 | increased | did not alter | decreased | did not alter | CCCCCCCCCCCCCCOc1ccc(C(=O)O)o1 [TOFA, 5-tetradecyloxy-2-furancarboxylic acid] | neither TOFA nor C75 significantly altered | induced | 4 | ~ 2 fold | 20 | ~2 | ~5
